# pIC50: −log10 of the molar value.
# Key:
# Assay type in all cases: biochemical
# recombinant hMAO-B = recombinant hMAO-B (Homo sapiens (Human), UniProt P27338); experiment: MAO-B activity assay (MAO-Glo assay kit); details: 4 μM substrate, 30 mins pre-incubation
# Method: (§1) The biological activities of the compounds of the present application can be assessed with methods and assays known in the art. For example, the potency of the compounds of the present application can be evaluated with an SSAO Activity Assay. Briefly, compounds of the present application can be applied to recombinant hSSAO, hMAO-A, and hMAO-B isoforms and the amine oxidase activity of the enzymes are measured after the addition and subsequent oxidation of the luminogenic substrate (e.g., with the MAO-Glo assay kit from Promega). The IC50 can be calculated, for example, by fitting the dose response curve using a 4-parameter non-linear regression routine.
# (§2) Amine oxidase activity of recombinant hSSAO, hMAO-A, and hMAO-B isoforms are measured using the MAO-Glo assay kit (Promega, V1402). Ten nL test compounds (with DMSO as vehicle, 0.1% v/v for hSSAO, hMAO-A and hMAO-B) were added into assay plates by Echo, and pre-incubated with 5 μL of enzyme for 30 mins at room temperature before the addition of 5 μL of luminogenic substrate. The substrate concentration is 40 μM for human recombinant SSAO, 40 μM for human recombinant MAO-A, and 4 μM for human recombinant MAO-B. The hSSAO and hMAO-A assays were conducted in the MAO-A reaction buffer in the kit, and the MAO-B assay was conducted in the MAO-B reaction buffer. Oxidation of the substrate was conducted for 1 hr, before the addition of detecting reagent according the manufacture's protocol. The IC50 value of the tested compounds was calculated by fitting the dose response curve using a 4-parameter non-linear regression routine.
# recombinant hSSAO = recombinant hSSAO (Homo sapiens (Human), UniProt Q16853); experiment: SSAO Activity Assay (MAO-Glo assay kit); details: 40 μM substrate, 30 mins pre-incubation
# Sequence of recombinant hSSAO (Q16853 whole entry): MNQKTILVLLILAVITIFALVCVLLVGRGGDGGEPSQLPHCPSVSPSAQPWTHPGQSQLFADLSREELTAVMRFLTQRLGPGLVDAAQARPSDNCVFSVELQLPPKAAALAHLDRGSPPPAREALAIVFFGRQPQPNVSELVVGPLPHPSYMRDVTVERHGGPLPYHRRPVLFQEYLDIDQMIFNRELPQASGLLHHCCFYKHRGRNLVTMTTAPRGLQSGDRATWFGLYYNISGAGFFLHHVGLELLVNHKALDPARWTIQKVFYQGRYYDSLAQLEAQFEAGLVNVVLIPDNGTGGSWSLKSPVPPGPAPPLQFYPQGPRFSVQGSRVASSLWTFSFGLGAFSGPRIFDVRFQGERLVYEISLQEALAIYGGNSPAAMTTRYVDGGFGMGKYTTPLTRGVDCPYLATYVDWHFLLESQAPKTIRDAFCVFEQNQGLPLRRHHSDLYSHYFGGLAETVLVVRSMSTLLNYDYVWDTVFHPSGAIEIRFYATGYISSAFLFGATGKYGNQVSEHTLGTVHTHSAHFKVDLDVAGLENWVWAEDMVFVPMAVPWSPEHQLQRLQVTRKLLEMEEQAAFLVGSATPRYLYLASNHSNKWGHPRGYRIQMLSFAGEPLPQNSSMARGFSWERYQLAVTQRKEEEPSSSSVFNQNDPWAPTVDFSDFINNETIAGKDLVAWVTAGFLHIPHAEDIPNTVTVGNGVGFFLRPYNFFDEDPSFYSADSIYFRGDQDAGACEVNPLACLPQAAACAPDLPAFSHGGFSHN
# Method: as §1, §2
# recombinant hMAO-A = recombinant hMAO-A (Homo sapiens (Human), UniProt P21397); experiment: MAO-A activity assay (MAO-Glo assay kit); details: 40 μM substrate, 30 mins pre-incubation
# Sequence of recombinant hMAO-A (P21397 whole entry): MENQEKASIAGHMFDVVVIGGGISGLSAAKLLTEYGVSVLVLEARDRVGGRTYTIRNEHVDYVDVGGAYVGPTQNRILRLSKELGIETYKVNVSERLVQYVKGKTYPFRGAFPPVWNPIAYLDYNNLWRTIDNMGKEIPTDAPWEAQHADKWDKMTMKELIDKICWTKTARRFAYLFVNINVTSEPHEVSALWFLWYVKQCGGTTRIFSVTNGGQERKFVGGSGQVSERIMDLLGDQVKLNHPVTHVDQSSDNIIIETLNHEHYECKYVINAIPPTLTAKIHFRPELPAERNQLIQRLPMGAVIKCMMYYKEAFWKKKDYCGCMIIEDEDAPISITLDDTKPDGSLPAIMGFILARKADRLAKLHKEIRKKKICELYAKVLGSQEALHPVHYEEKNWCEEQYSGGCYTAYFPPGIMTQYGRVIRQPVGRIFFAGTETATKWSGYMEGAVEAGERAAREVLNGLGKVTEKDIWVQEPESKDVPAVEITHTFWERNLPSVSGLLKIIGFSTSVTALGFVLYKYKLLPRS
# Method: as §1, §2
# Sequence of recombinant hMAO-B (P27338 whole entry, canonical isoform): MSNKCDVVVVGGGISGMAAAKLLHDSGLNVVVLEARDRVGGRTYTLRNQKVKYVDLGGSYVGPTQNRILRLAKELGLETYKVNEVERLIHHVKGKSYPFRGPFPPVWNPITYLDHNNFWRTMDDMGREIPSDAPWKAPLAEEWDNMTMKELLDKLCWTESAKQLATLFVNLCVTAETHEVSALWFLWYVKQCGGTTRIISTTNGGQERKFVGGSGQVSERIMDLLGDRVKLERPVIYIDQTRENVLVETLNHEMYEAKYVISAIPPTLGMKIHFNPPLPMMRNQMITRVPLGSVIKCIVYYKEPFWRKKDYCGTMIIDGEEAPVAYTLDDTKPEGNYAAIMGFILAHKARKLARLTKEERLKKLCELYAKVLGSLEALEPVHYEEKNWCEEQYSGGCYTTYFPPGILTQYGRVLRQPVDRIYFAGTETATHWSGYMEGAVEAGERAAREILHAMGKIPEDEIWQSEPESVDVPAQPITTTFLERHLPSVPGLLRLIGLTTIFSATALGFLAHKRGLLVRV
pIC50 (recombinant hMAO-B),pIC50 (recombinant hSSAO),pIC50 (recombinant hMAO-A),SMILES
< 4.52,7.00 to 7.70,< 4.52,"NC/C(=C\F)COc1ccc(S(=O)(=O)CC2CCN(C(=O)CC3CC3)CC2)cc1 [Compound 48, (E)-1-(4-(((4-((2-(aminomethyl)-3-fluoroallyl)oxy)phenyl)sulfonyl)methyl)piperidin-1-yl)-2-cyclopropylethan-1-one]"
< 4.52,7.00 to 7.70,< 4.52,"NC/C(=C\F)COc1ccc(S(=O)(=O)CC2CCN(C(=O)C3CCC3)CC2)cc1 [Compound 50, (E)-(4-(((4-((2-(aminomethyl)-3-fluoroallyl)oxy)phenyl)sulfonyl)methyl)piperidin-1-yl)(cyclobutyl)methanone]"
< 4.52,7.00 to 7.70,< 4.52,"NC/C(=C\F)COc1ccc(S(=O)(=O)CC2CCN(C(=O)C3CC(F)(F)C3)CC2)cc1 [Compound 51, (E)-(4-(((4-((2-(aminomethyl)-3-fluoroallyl)oxy)phenyl)sulfonyl)methyl)piperidin-1-yl)(3,3-difluorocyclobutyl)methanone]"
4.52 to 5.00,7.00 to 7.70,–,"NC/C(=C\F)COc1ccc(S(=O)(=O)CC23CCC(O)(CC2)CC3)cc1 [compound 17, (E)-4-(((4-((2-(aminomethyl)-3-fluoroallyl)oxy)phenyl)sulfonyl)methyl)bicyclo[2.2.2]octan-1-ol]"
4.52 to 5.00,7.00 to 7.70,–,"NC/C(=C\F)COc1ccc(S(=O)(=O)COCC2CCN(C(=O)C3(C(F)(F)F)CC3)CC2)cc1 [compound 35, (E)-(4-((((4-((2-(aminomethyl)-3-fluoroallyl)oxy)phenyl)sulfonyl)methoxy)methyl)piperidin-1-yl)(1-(trifluoromethyl)cyclopropyl)methanone]"
4.52 to 5.00,–,–,"NC/C(=C\F)COc1ccc(S(=O)(=O)CC23CCC(NC(=O)C4CC4)(CC2)CC3)cc1 [compound 76, (E)-N-(4-(((4-((2-(aminomethyl)-3-fluoroallyl)oxy)phenyl)sulfonyl)methyl)bicyclo[2.2.2]octan-1-yl)cyclopropanecarboxamide]"
4.52 to 5.00,–,–,"CC1CCN(C23CCC(CS(=O)(=O)c4ccc(OC/C(=C/F)CN)cc4)(CC2)CC3)C1=O (stereo not shown) [compound 83, (E)-1-(4-(((4-((2-(aminomethyl)-3-fluoroallyl)oxy)phenyl)sulfonyl)methyl)bicyclo[2.2.2]octan-1-yl)-3-methylpyrrolidin-2-one]"
4.52 to 5.00,–,–,"CC(C)C(=O)N(C)CC(C)(C)CS(=O)(=O)c1ccc(OC/C(=C/F)CN)cc1 [compound 96, (E)-N-(3-((4-((2-(aminomethyl)-3-fluoroallyl)oxy)phenyl)sulfonyl)-2,2-dimethylpropyl)-N-methylisobutyramide]"
4.52 to 5.00,7.00 to 7.70,–,"CCN(CC(C)(C)CS(=O)(=O)c1ccc(OC/C(=C/F)CN)cc1)C(=O)C(C)C [compound 98, (E)-N-(3-((4-((2-(aminomethyl)-3-fluoroallyl)oxy)phenyl)sulfonyl)-2,2-dimethylpropyl)-N-ethylisobutyramide]"
–,6.30 to 7.00,4.52 to 5.00,"CC(C)(C)C(=O)N1CCN(CS(=O)(=O)c2ccc(OC/C(=C/F)CN)cc2)C(=O)C1 [compound 133, (E)-1-(((4-((2-(aminomethyl)-3-fluoroallyl)oxy)phenyl)sulfonyl)methyl)-4-pivaloylpiperazin-2-one]"
–,6.30 to 7.00,4.52 to 5.00,"CC1(C(=O)N2CCN(CS(=O)(=O)c3ccc(OC/C(=C/F)CN)cc3)C(=O)C2)CCC1 [compound 134, (E)-1-(((4-((2-(aminomethyl)-3-fluoroallyl)oxy)phenyl)sulfonyl)methyl)-4-(1-methylcyclobutane-1-carbonyl)piperazin-2-one]"
–,7.00 to 7.70,–,"NC/C(=C\F)COc1ccc(S(=O)(=O)CC23CCC(C(=O)NC4CCC4)(CC2)C3)cc1 [compound 143, (E)-4-(((4-((2-(aminomethyl)-3-fluoroallyl)oxy)phenyl)sulfonyl)methyl)-N-cyclobutylbicyclo[2.2.1]heptane-1-carboxamide]"

# The next lines start with the molecule.
SMILES,pIC50 (recombinant hMAO-B),pIC50 (recombinant hSSAO),pIC50 (recombinant hMAO-A)
"CS(=O)(=O)N1CCC(CS(=O)(=O)c2ccc(OC/C(=C/F)CN)cc2)CC1 [Compound 38, (E)-3-fluoro-2-((4-(((1-(methylsulfonyl)piperidin-4-yl)methyl)sulfonyl)phenoxy)methyl) prop-2-en-1-amine]",> 5.00,> 7.70,> 5.00
"CC(C)(C)CC(=O)N1CCC(CS(=O)(=O)c2ccc(OC/C(=C/F)CN)cc2)CC1 [Compound 42, (E)-1-(4-(((4-((2-(aminomethyl)-3-fluoroallyl)oxy)phenyl)sulfonyl)methyl)piperidin-1-yl)-3,3-dimethylbutan-1-one]",< 4.52,7.00 to 7.70,< 4.52
"NC/C(=C\F)COc1ccc(S(=O)(=O)CC2CCN(C(=O)C34CC5CC(CC(C5)C3)C4)CC2)cc1 [Compound 43, (E)-adamantan-1-yl(4-(((4-((2-(aminomethyl)-3-fluoroallyl)oxy)phenyl)sulfonyl)methyl)piperidin-1-yl)methanone]",4.52 to 5.00,6.30 to 7.00,4.52 to 5.00
"NC/C(=C\F)COc1ccc(S(=O)(=O)Cc2cccc(C(=O)N3CCCC3)c2)cc1 [Compound 47, (E)-(3-(((4-((2-(aminomethyl)-3-fluoroallyl)oxy)phenyl)sulfonyl)methyl)phenyl)(pyrrolidin-1-yl)methanone]",< 4.52,6.30 to 7.00,< 4.52
"NC/C(=C\F)COc1ccc(S(=O)(=O)CC2CCN(C(=O)C3(C(F)(F)F)CC3)CC2)cc1 [Compound 49, (E)-(4-(((4-((2-(aminomethyl)-3-fluoroallyl)oxy)phenyl)sulfonyl)methyl)piperidin-1-yl)(1-(trifluoromethyl)cyclopropyl) methanone]",< 4.52,7.00 to 7.70,< 4.52
"NC/C(=C\F)COc1ccc(S(=O)(=O)CC2CCOCC2)c(Cl)c1 [compound 8, (E)-2-((3-chloro-4-(((tetrahydro-2H-pyran-4-yl)methyl)sulfonyl)phenoxy)methyl)-3-fluoroprop-2-en-1-amine]",–,7.00 to 7.70,4.52 to 5.00
"N#CC1(CS(=O)(=O)c2ccc(OC/C(=C/F)CN)cc2)CCOCC1 [compound 12, (E)-4-(((4-((2-(aminomethyl)-3-fluoroallyl)oxy)phenyl)sulfonyl)methyl)tetrahydro-2H-pyran-4-carbonitrile]",–,7.00 to 7.70,4.52 to 5.00
"NC/C(=C\F)COc1ccc(S(=O)(=O)CC23CCC(C4(O)CC4)(CC2)CC3)cc1 [compound 18, (E)-1-(4-(((4-((2-(aminomethyl)-3-fluoroallyl)oxy)phenyl)sulfonyl)methyl)bicyclo[2.2.2]octan-1-yl)cyclopropan-1-ol]",4.52 to 5.00,–,–
"COCS(=O)(=O)c1ccc(OC/C(=C/F)CN)cc1 [compound 28, (E)-3-fluoro-2-((4-((methoxymethyl)sulfonyl)phenoxy)methyl)prop-2-en-1-amine]",4.52 to 5.00,–,–
"NC/C(=C\F)COc1ccc(S(=O)(=O)CC2CCN(C(=O)C34CC(F)(C3)C4)CC2)cc1 [compound 40, (E)-(4-(((4-((2-(aminomethyl)-3-fluoroallyl)oxy)phenyl)sulfonyl)methyl)piperidin-1-yl)(3-fluorobicyclo[1.1.1]pentan-1-yl)methanone]",–,7.00 to 7.70,4.52 to 5.00
"CC1(CS(=O)(=O)c2ccc(OC/C(=C/F)CN)cc2)CCN(C(=O)C2(C)CC2)CC1 [compound 57, (E)-(4-(((4-((2-(aminomethyl)-3-fluoroallyl)oxy)phenyl)sulfonyl)methyl)-4-methylpiperidin-1-yl)(1-methylcyclopropyl)methanone]",–,7.00 to 7.70,4.52 to 5.00
"NC/C(=C\F)COc1ccc(S(=O)(=O)CC23CCC(C(=O)NC4CCC4)(CC2)CC3)cc1 [compound 64, (E)-4-(((4-((2-(aminomethyl)-3-fluoroallyl)oxy)phenyl)sulfonyl)methyl)-N-cyclobutylbicyclo[2.2.2]octane-1-carboxamide]",4.52 to 5.00,–,–
"NC/C(=C\F)COc1ccc(S(=O)(=O)Cc2ccc(C(=O)NC3CCC3)c(C(F)(F)F)c2)cc1 [compound 89, (E)-4-(((4-((2-(aminomethyl)-3-fluoroallyl)oxy)phenyl)sulfonyl)methyl)-N-cyclobutyl-2-(trifluoromethyl)benzamide]",4.52 to 5.00,6.30 to 7.00,–
"CC(C)C(=O)N1CCC(CS(=O)(=O)c2ccc(OC/C(=C/F)CN)cc2)C1 (stereo not shown) [compound 99, (E)-1-(3-(((4-((2-(aminomethyl)-3-fluoroallyl)oxy)phenyl)sulfonyl)methyl)pyrrolidin-1-yl)-2-methylpropan-1-one]",–,7.00 to 7.70,4.52 to 5.00
"CC(C)(C)C(=O)NC12CCC(CS(=O)(=O)c3ccc(OC/C(=C/F)CN)cc3)(CC1)C2 [compound 145, (E)-N-(4-(((4-((2-(aminomethyl)-3-fluoroallyl)oxy)phenyl)sulfonyl)methyl)bicyclo[2.2.1]heptan-1-yl)pivalamide]",4.52 to 5.00,7.00 to 7.70,–
